8 compounds from patent US7405240B2, “Substituted cyclopentanes or cyclopentanones as therapeutic agents” (Allergan, Inc., priority 2006, dated 2008) can be followed below.

One may read the EC50 as the concentration that produces a half-maximal response. A word on the Ki: it is a measure of affinity in units of concentration, obtained from inhibition or displacement.

One data set relates to normotensive dogs. Put plainly: Intraocular pressure and ocular surface hyperemia in normotensive dogs. The format is in vivo, dog. Set-up: maximum OSH score: scale not given here. The conditions noted are these: once daily for 5 days. Here is the method: (§1) (Z)-7-[(1R,2S,3R,5R)-5-Chloro-2-(3,5-dichloro-phenoxymethyl)-3-hydroxy-cyclopentyl]-hept-5-enoic acid (15b) was tested at multiple concentrations in normotensive dogs, dosing once daily for 5 days. At 0.05%, the maximum IOP decrease from baseline was 4.3 mmHg (30%) at 6 h; the maximum OSH score was 0.6 at 6 h. […] This compound was also tested in laser-induced hypertensive monkeys, using one single day dose. At 0.1%, the maximum IOP decrease from baseline was 6 mmHg (19%) at 6 h.
(§2) (Z)-7-[(1R,2S,3R,5R)-5-Chloro-2-(3,5-dichloro-phenoxymethyl)-3-hydroxy-cyclopentyl]-hept-5-enoic acid isopropyl ester (42b) was tested in normotensive dogs at 0.05%, dosing once daily for 5 days. The maximum intraocular pressure (IOP) decrease from baseline was 3 mmHg (19%) at 6 h; the maximum ocular surface hyperemia (OSH) score was 0.6 at 74 h. This compound was also tested in laser-induced hypertensive monkeys, using one single day dose. At 0.01%, the maximum IOP decrease from baseline was 6 mmHg (16%) at 6 h.

For data set [1], the target named is T1, hEP2 (Homo sapiens, UniProt P43116). Put plainly: cAMP assay, hEP2. The format is cell-based. In general terms: Changes in cAMP serve as a functional read-out for many G protein-coupled receptors.
The target in data set [2] is T2, hEP4 (Homo sapiens, UniProt P35408). Put plainly: FLIPR calcium signal, hEP4. The format is cell-based. Set-up: expressed in transfected cells; host or cells: HEK-293(EBNA). The following applies: HEK-293(EBNA) cells expressing hEP4/Gqs5. The method, boiled down:
(§3)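 HEK-293(EBNA) cells stably expressing a single human prostaglandin receptor (hDP/Gqs5 chimera for DP), Fluo-4 AM loaded, in HBSS-HEPES pH 7.4 at 37 °C. Peak calcium fluorescence scaled to buffer and receptor standard agonist; 10^−5 M single-point or 10^−5–10^−11 M curves, duplicates, n≥3.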

In data set [3] the target is T1, hEP2. Put plainly: FLIPR calcium signal, hEP2. Set-up: expressed in transfected cells; host or cells: HEK-293(EBNA). The conditions noted are these: HEK-293(EBNA) cells expressing hEP2/Gqs5. The format is cell-based. In outline:
as §3

Data set [4] concerns laser-induced hypertensive monkeys. Put plainly: Intraocular pressure in laser-induced hypertensive monkeys. The format is in vivo, monkey. The conditions noted are these: one single day dose. As for the experimental part: as §1, §2
The target in data set [5] is T1, hEP2. Put plainly: Competition binding, [3H]PGE2, human EP2 receptors. More on the design: expressed in transfected cells; host or cells: HEK 293. The following applies: [3H]PGE2, HEK 293 cells stably expressing human EP2; read-out: hEP2 Ki. In outline:
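HEK 293 membranes or cells stably expressing human EP2 were incubated with 10 nM [3H]PGE2 and test compound in HBSS/20 mM Hepes pH 7.3, 60 min at 23° C, then filtered. Non-specific binding defined with 10 μM PGE2; IC50 from single-site fit converted to Ki using KD 40 nM.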

For data set [6], the target named is T2, hEP4. Put plainly: Radioligand binding, EP4 receptor. Set-up: expressed in transfected cells; host or cells: HEK-293. The conditions noted are these: [3H]PGE2, HEK-293 cells expressing EP4. In outline: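 HEK-293 membranes stably expressing human EP4, in TME buffer pH 7.4; competition vs 5 nM [3H]-PGE2, 60 min at 25 °C, stopped by GF/B filtration. Non-specific binding defined with 10^−5 M unlabeled PGE2; duplicates, at least three experiments.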

Where [7] appears, read: Canis lupus familiaris, topical, 120 h, 0.1%, read-out: maximum IOP decrease from baseline.
[8] abbreviates: Primates, topical, 0.1%, read-out: maximum IOP decrease from baseline.

T1 sequence (P43116 whole entry): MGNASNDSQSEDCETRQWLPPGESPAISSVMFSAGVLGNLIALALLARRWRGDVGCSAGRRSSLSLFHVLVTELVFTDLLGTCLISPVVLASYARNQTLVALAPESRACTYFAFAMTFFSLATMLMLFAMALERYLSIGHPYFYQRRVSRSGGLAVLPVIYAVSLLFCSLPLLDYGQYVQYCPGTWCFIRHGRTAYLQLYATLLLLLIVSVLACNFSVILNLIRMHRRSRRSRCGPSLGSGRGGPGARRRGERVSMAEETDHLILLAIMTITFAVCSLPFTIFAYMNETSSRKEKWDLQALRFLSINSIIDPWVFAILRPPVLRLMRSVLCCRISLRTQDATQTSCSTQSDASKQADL
T2 sequence (P35408 whole entry): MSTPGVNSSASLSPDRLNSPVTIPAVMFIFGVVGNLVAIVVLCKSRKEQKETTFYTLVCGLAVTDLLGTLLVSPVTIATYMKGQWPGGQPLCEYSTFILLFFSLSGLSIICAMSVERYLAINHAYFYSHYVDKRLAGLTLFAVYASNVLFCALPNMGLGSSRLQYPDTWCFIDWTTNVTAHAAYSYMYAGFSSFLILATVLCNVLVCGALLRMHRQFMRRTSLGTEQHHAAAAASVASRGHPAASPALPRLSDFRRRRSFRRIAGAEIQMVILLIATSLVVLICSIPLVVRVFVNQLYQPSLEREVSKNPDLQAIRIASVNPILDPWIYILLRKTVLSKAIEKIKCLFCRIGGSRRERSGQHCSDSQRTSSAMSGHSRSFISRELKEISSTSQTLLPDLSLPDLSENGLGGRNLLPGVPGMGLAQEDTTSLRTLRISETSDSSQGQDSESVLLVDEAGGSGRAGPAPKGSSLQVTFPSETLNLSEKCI

For the compound `O=C(O)CCC/C=C\C[C@@H]1[C@@H](COc2cc(C(F)(F)F)cc(C(F)(F)F)c2)[C@H](O)C[C@H]1Cl` [Example 15, (Z)-7-[(1R,2S,3R,5R)-2-(3,5-Bis-trifluoromethyl-phenoxymethyl)-5-chloro-3-hydroxy-cyclopentyl]-hept-5-enoic acid], the “maximum IOP decrease from baseline” value in the data set with normotensive dogs (0.1%) came out at 4.8 mmHg; in data set [4] (0.1%) it was 11 mmHg. In addition, the “maximum OSH score” value with normotensive dogs (0.1%) is 0.9. Besides, the “time of maximum IOP decrease” value is given as 100 h with normotensive dogs (0.1%) and 6 h in data set [4] (0.1%). Moreover, the “time of maximum OSH score” value in the data set with normotensive dogs (0.1%) worked out at 52 h. Moreover, the change in vivo at 0.1 % in the data set on normotensive dogs (setting [7]) came out at 35%; in data set [4] (setting [8]), 30%. Besides, the figures for the EC50 on hEP2 [1], at hEP4 [2] and at hEP2 [3] were 8 nM, 13000 nM and 11 nM, respectively. Also, the Ki on hEP2 [5] was determined as 8 nM; at hEP4 [6] it was 2290 nM.

As for `O=C(O)CCC/C=C\C[C@@H]1[C@@H](COc2cccc3ccccc23)[C@H](O)C[C@H]1Cl` [Example 19, (Z)-7-[(1R,2S,3R,5R)-5-Chloro-3-hydroxy-2-(naphthalen-1-yloxymethyl)-cyclopentyl]-hept-5-enoic acid], the “maximum IOP decrease from baseline” value in the data set on normotensive dogs (0.1%) amounted to 5.8 mmHg; in data set [4] (0.1%) it was 11.8 mmHg. Further, in the data set with normotensive dogs (0.1%), the “maximum OSH score” value is recorded as 0.8. Moreover, the “time of maximum IOP decrease” value (in the data set with normotensive dogs (0.1%); in data set [4] (0.1%)) was 6 h each time. Further, the “time of maximum OSH score” value in the data set on normotensive dogs (0.1%) was determined as 54 h. Moreover, the change in vivo at 0.1 % in the data set on normotensive dogs (setting [7]) amounted to 41%; in data set [4] (setting [8]), 31%. For the same compound, the EC50 at hEP2 [1] is 2 nM; at hEP4 [2], 115 nM; on hEP2 [3], 3 nM. For the same compound, the inhibition constant Ki on hEP2 [5] turned out to be 17 nM; at hEP4 [6], 315 nM.

Regarding `O=C(O)CCC/C=C\C[C@@H]1[C@@H](COc2cccc(C(F)(F)F)c2)[C@H](O)C[C@H]1Cl` [Example 24, (Z)-7-[(1R,2S,3R,5R)-5-Chloro-3-hydroxy-2-(3-trifluoromethyl-phenoxymethyl)-cyclopentyl]-hept-5-enoic acid], the “maximum IOP decrease from baseline” value with normotensive dogs (0.1%) amounted to 2.5 mmHg; in data set [4] (0.1%), 10.8 mmHg. Further, in the data set with normotensive dogs (0.1%), the “maximum OSH score” value was found to be 0.5. Also, the “time of maximum IOP decrease” value in the data set on normotensive dogs (0.1%) was 78 h; in data set [4] (0.1%), 6 h. The “time of maximum OSH score” value in the data set on normotensive dogs (0.1%) turned out to be 6 h. The figures for the change in vivo at 0.1 % (with normotensive dogs (setting [7]); in data set [4] (setting [8])) were 16% and 28%, respectively. Moreover, the EC50 on hEP2 [1] was determined as 2.4 nM; on hEP4 [2], 9870 nM; on hEP2 [3], 66 nM. For the same compound, the Ki at hEP2 [5] amounted to 44 nM; on hEP4 [6] it was 1420 nM.

For `Cc1cc(C)cc(OC[C@@H]2[C@@H](C/C=C\CCCC(=O)O)[C@H](Cl)C[C@H]2O)c1` [Example 36, (Z)-7-[(1R,2S,3R,5R)-5-Chloro-2-(3,5-dimethyl-phenoxymethyl)-3-hydroxy-cyclopentyl]-hept-5-enoic acid], the entries for the “maximum IOP decrease from baseline” value (in the data set on normotensive dogs (0.1%); in data set [4] (0.1%)) were 6.5 mmHg and 9 mmHg, respectively. The “maximum OSH score” value in the data set on normotensive dogs (0.1%) is reported as 1.2. Besides, the “time of maximum IOP decrease” value came to 52 h in the data set with normotensive dogs (0.1%) and 2 h in data set [4] (0.1%). Also, the “time of maximum OSH score” value in the data set with normotensive dogs (0.1%) is given as 28 h. For the same compound, the values for the change in vivo at 0.1 % (in the data set with normotensive dogs (setting [7]); in data set [4] (setting [8])) were 46% and 25%, respectively. Moreover, the half-maximal effective concentration (EC50) came to 1.4 nM on hEP2 [1], 7720 nM on hEP4 [2] and 27 nM at hEP2 [3]. Also, the figures for the Ki on hEP2 [5] and at hEP4 [6] were 31 nM and 1090 nM, respectively.

With `CC(C)OC(=O)CCC/C=C\C[C@@H]1[C@@H](COc2cc(C(F)(F)F)cc(C(F)(F)F)c2)[C@H](O)C[C@H]1Cl` [Example 42c, (Z)-7-[(1R,2S,3R,5R)-2-(3,5-Bis-trifluoromethyl-phenoxymethyl)-5-chloro-3-hydroxy-cyclopentyl]-hept-5-enoic acid isopropyl ester], in the data set on normotensive dogs (0.03%), the “maximum IOP decrease from baseline” value came to 2.3 mmHg, the “maximum OSH score” value was found to be 0.7, the “time of maximum IOP decrease” value is 100 h and the “time of maximum OSH score” value was 78 h. Also, in the data set on normotensive dogs (Canis lupus familiaris, topical, 120 h, 0.03%, read-out: maximum IOP decrease from baseline), the change in vivo at 0.03 % came out at 14%. Besides, in data set [4] (0.03%), the “maximum IOP decrease from baseline” value is given as 4 mmHg and the “time of maximum IOP decrease” value was determined as 6 h. In addition, the change in vivo at 0.03 % in data set [4] (Primates, topical, 0.03%, read-out: maximum IOP decrease from baseline) came out at 11%.

With `CC(C)OC(=O)CCC/C=C\C[C@@H]1[C@@H](COc2cccc(C(F)(F)F)c2)[C@H](O)C[C@H]1Cl` [Example 42i, (Z)-7-[(1R,2S,3R,5R)-5-Chloro-3-hydroxy-2-(3-trifluoromethyl-phenoxymethyl)-cyclopentyl]-hept-5-enoic acid isopropyl ester], in the data set on normotensive dogs (0.1%), the “maximum IOP decrease from baseline” value is 2.7 mmHg, the “maximum OSH score” value came out at 0.6, the “time of maximum IOP decrease” value was found to be 2 h and the “time of maximum OSH score” value was 50 h. Further, the change in vivo at 0.1 % in the data set on normotensive dogs (setting [7]) stood at 19%. Moreover, in data set [4] (0.1%), the “maximum IOP decrease from baseline” value stood at 4.7 mmHg and the “time of maximum IOP decrease” value came to 6 h. Further, the change in vivo at 0.1 % in data set [4] (setting [8]) stood at 14%.

Regarding `Cc1cc(C)cc(OC[C@@H]2[C@@H](C/C=C\CCCC(=O)OC(C)C)[C@H](Cl)C[C@H]2O)c1` [Example 42u, (Z)-7-[(1R,2S,3R,5R)-5-Chloro-2-(3,5-dimethyl-phenoxymethyl)-3-hydroxy-cyclopentyl]-hept-5-enoic acid isopropyl ester], in the data set with normotensive dogs (0.1%), the “maximum IOP decrease from baseline” value was found to be 4.3 mmHg, the “maximum OSH score” value amounted to 0.9, the “time of maximum IOP decrease” value turned out to be 30 h and the “time of maximum OSH score” value is reported as 74 h. Further, the change in vivo at 0.1 % in the data set with normotensive dogs (setting [7]) came out at 30%. Moreover, in data set [4] (0.1%), the “maximum IOP decrease from baseline” value is reported as 8 mmHg and the “time of maximum IOP decrease” value was determined as 6 h. For the same compound, the change in vivo at 0.1 % in data set [4] (setting [8]) is 23%.

Consider `O=C(O)CCC/C=C\C[C@@H]1[C@@H](COc2ccc(CO)cc2)[C@H](O)C[C@H]1Cl` [Example 43, (Z)-7-[(1R,2S,3R,5R)-5-Chloro-3-hydroxy-2-(4-hydroxymethyl-phenoxymethyl)-cyclopentyl]-hept-5-enoic acid], for which the “maximum IOP decrease from baseline” value in the data set on normotensive dogs (0.1%) amounted to 2.8 mmHg; in data set [4] (0.1%), 2 mmHg. For the same compound, the “maximum OSH score” value in the data set with normotensive dogs (0.1%) turned out to be 0.6. Besides, the “time of maximum IOP decrease” value in the data set with normotensive dogs (0.1%) amounted to 98 h; in data set [4] (0.1%), 6 h. For the same compound, in the data set with normotensive dogs (0.1%), the “time of maximum OSH score” value is 98 h. Also, the change in vivo at 0.1 % in the data set with normotensive dogs (setting [7]) turned out to be 20%; in data set [4] (setting [8]), 6%. In addition, the figures for the EC50 at hEP2 [1] and on hEP2 [3] were 5 nM and 44 nM, respectively. For the same compound, the Ki was 993 nM on hEP2 [5] and above 10000 nM at hEP4 [6].
